According to ChEMBL document CHEMBL1132907, “The design and synthesis of the high efficacy, non-peptide CCK1 receptor agonist PD170292” (Bioorg Med Chem Lett, 2000):

Columns and labels:
[1] = biological target: T1, Cholecystokinin receptor type A (Rattus norvegicus, UniProt P30551); test: Compound was evaluated for the binding affinity towards rat pancreatic Cholecystokinin type A receptor
T1 sequence (P30551 whole entry): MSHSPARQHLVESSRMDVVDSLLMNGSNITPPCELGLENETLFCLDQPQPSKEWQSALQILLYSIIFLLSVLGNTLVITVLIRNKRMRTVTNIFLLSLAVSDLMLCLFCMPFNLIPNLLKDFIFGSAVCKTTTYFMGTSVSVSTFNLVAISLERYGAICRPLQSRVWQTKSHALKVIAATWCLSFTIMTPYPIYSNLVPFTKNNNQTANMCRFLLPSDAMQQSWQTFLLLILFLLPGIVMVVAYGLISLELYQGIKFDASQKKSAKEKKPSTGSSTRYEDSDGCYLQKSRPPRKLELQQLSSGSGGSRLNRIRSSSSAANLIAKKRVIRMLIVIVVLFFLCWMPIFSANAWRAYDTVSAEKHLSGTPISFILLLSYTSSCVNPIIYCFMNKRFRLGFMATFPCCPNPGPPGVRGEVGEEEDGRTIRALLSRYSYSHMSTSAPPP

[2] = biological target: T2, Gastrin/cholecystokinin type B receptor (Mus musculus, UniProt P56481); test: Binding affinity towards Cholecystokinin type B receptor in mouse cortex membrane; format: cell membranes
T2 sequence (P56481 whole entry): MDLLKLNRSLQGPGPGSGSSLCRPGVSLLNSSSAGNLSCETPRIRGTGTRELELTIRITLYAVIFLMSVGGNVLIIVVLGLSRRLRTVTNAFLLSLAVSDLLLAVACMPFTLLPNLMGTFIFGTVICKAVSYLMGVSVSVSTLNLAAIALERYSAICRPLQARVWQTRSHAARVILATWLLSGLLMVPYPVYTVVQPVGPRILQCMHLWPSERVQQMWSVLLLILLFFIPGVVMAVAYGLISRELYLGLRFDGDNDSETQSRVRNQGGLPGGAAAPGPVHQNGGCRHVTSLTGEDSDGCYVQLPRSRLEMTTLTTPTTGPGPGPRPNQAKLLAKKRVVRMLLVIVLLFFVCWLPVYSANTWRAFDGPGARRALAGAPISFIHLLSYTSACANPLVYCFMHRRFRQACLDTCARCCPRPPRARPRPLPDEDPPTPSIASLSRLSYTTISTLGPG

[3] = species: Rattus norvegicus; test: Compound was evaluated for the stimulation of amylase secretion in isolated rat pancreatic acini
[4] = test system: Jurkat; test: Compound was evaluated for calcium mobilization in Jurkat cells; format: functional, cell-based; conditions: Homo sapiens
[5] = test system: Jurkat; test: Compound was tested for [Ca2+] mobilization in Jurkat cells at 1 uM; Inactive; format: functional, cell-based, Homo sapiens

Structure (SMILES)	IC50 [1]	IC50 [2]	EC50 [3]	EC50 [4]	IC50 [4]	EC50 [5]
O=C(CC(Cc1c[nH]c2ccccc12)(NC(=O)OC1C2CC3CC(C2)CC1C3)C(=O)NCCc1ccccc1)NCCCCNC(=O)Nc1ccccc1Cl (configuration not stated)	150 nM	3600 nM	480 nM			
CSCC[C@H](NC(=O)[C@H](Cc1ccc(OS(=O)(=O)O)cc1)NC(=O)[C@@H](N)CC(=O)O)C(=O)NCC(=O)N[C@@H](Cc1c[nH]c2ccccc12)C(=O)N[C@@H](CCSC)C(=O)N[C@@H](CC(=O)O)C(=O)N[C@@H](Cc1ccccc1)C(N)=O [SINCALIDE]			0.02 nM	2 nM		
CC(Cc1c[nH]c2ccccc12)(NC(=O)OC1C2CC3CC(C2)CC1C3)C(=O)N[C@H](CC(=O)O)Cc1ccc(F)cc1 (single isomer, unassigned)	75 nM	0.083 nM				
Cc1ccccc1NC(=O)NCCCC[C@@H](CC(=O)O)NC(=O)[C@@](C)(Cc1c[nH]c2ccccc12)NC(=O)OC1C2CC3CC(C2)CC1C3 (some centres not stated) [PD-170292]	1.2 nM	6.7 nM	5 nM		40 nM	Not Active
